System: TNFα
Assay: TNFα secretion by human white blood cells stimulated with PMA/ionomycin, synergy score
Type: cell-based
Parameters: key: S = Σ Idata(Idata−ILoewe) × ln dilution factors; volume over Loewe additivity
Conditions: PBMC stimulated with PMA/Ionomycin
Description: A 100 μl suspension of diluted human white blood cells contained within each well of a polystyrene 384-well plate (NalgeNunc) was stimulated to secrete TNFα by treatment with a final concentration of 10 ng/mL phorbol 12-myristate 13-acetate (Sigma, P-1585) and 750 ng/mL ionomycin (Sigma, I-0634). Various concentrations of each test compound were added at the time of stimulation. After 16-18 hours of incubation at 37° C. in a humidified incubator, the plate was centrifuged and the supernatant transferred to a white opaque polystyrene 384-well plate (NalgeNunc, Maxisorb) coated with an anti-TNFα antibody (PharMingen, #551220). After a two-hour incubation, the plate was washed (Tecan PowerWasher 384) with PBS containing 0.1% Tween 20 and incubated for an additional one hour with another anti-TNFα antibody that was biotin labeled (PharMingen, #554511) and HRP coupled to strepavidin (PharMingen, #13047E). After the plate was washed with 0.1% Tween 20/PBS, an HRP-luminescent substrate was added to each well and light intensity measured using a LJL Analyst plate luminometer.
The synergy scores calculated for the various combinations of compounds set forth in Table 3 was calculated by the formula S=log fX log fYΣIdata(Idata−ILoewe), summed over all non-single-agent concentration pairs, and where log fX,Y are the natural logarithm of the dilution factors used for each single agent. This effectively calculates a volume between the measured and Loewe additive response surfaces, weighted towards high inhibition and corrected for varying dilution factors.

[1] = combination with Hydrocortisone

CN(C)CCCN1c2ccccc2CCc2ccc(Cl)cc21 [Clomipramine]
Synergy Score based on TNF-α inhibition (combination with Betamethasone): 0.78
Synergy Score based on TNF-α inhibition (combination with Budesonide): 0.61
Synergy Score based on TNF-α inhibition (combination with Clobetasol): 0.65
Synergy Score based on TNF-α inhibition (combination with Dexamethasone): 1.2
Synergy Score based on TNF-α inhibition (combination with Diflorasone): 0.55
Synergy Score based on TNF-α inhibition [1]: 0.6
Synergy Score based on TNF-α inhibition (combination with Prednisolone): 0.82
Synergy Score based on TNF-α inhibition (combination with Triamcinolone): 0.5

CN(C)CCCN1c2ccccc2CCc2ccccc21 [Imipramine]
Synergy Score based on TNF-α inhibition (combination with Betamethasone): 0.34
Synergy Score based on TNF-α inhibition (combination with Budesonide): 0.88
Synergy Score based on TNF-α inhibition (combination with Diflorasone): 0.43
Synergy Score based on TNF-α inhibition [1]: 0.82
Synergy Score based on TNF-α inhibition (combination with Prednisolone): 0.61
Synergy Score based on TNF-α inhibition (combination with Triamcinolone): 0.34

Clc1ccc2c(c1)C(N1CCNCC1)=Nc1ccccc1O2 [Amoxapine]
Synergy Score based on TNF-α inhibition (combination with Betamethasone): 0.68
Synergy Score based on TNF-α inhibition (combination with Budesonide): 0.63
Synergy Score based on TNF-α inhibition (combination with Dexamethasone): 1.3
Synergy Score based on TNF-α inhibition [1]: 0.56
Synergy Score based on TNF-α inhibition (combination with Prednisolone): 1.1
Synergy Score based on TNF-α inhibition (combination with Triamcinolone): 0.37

CN1CCC(=C2c3ccccc3C=Cc3ccccc32)CC1 [Cyproheptadine]
Synergy Score based on TNF-α inhibition (combination with Betamethasone): 0.8
Synergy Score based on TNF-α inhibition (combination with Budesonide): 0.56
Synergy Score based on TNF-α inhibition (combination with Dexamethasone): 1.3
Synergy Score based on TNF-α inhibition [1]: 0.75
Synergy Score based on TNF-α inhibition (combination with Prednisolone): 1.3
Synergy Score based on TNF-α inhibition (combination with Triamcinolone): 0.57

CNCCCN1c2ccccc2CCc2ccccc21 [Desipramine]
Synergy Score based on TNF-α inhibition (combination with Betamethasone): 0.69
Synergy Score based on TNF-α inhibition (combination with Budesonide): 1
Synergy Score based on TNF-α inhibition (combination with Clobetasol): 0.52
Synergy Score based on TNF-α inhibition (combination with Dexamethasone): 1.6
Synergy Score based on TNF-α inhibition (combination with Diflorasone): 0.5
Synergy Score based on TNF-α inhibition [1]: 0.74
Synergy Score based on TNF-α inhibition (combination with Prednisolone): 1.3
Synergy Score based on TNF-α inhibition (combination with Triamcinolone): 0.44

CN1CCC(=C2c3ccccc3CC(=O)c3sccc32)CC1 [Ketotifen]
Synergy Score based on TNF-α inhibition (combination with Betamethasone): 0.37
Synergy Score based on TNF-α inhibition (combination with Budesonide): 0.15
Synergy Score based on TNF-α inhibition (combination with Dexamethasone): 1.6
Synergy Score based on TNF-α inhibition [1]: 0.31
Synergy Score based on TNF-α inhibition (combination with Prednisolone): 0.78
Synergy Score based on TNF-α inhibition (combination with Triamcinolone): 0.15

CN(C)CCC=C1c2ccccc2C=Cc2ccccc21 [Cyclobenzaprine]
Synergy Score based on TNF-α inhibition (combination with Betamethasone): 0.29
Synergy Score based on TNF-α inhibition (combination with Budesonide): 0.7
Synergy Score based on TNF-α inhibition (combination with Dexamethasone): 1.2
Synergy Score based on TNF-α inhibition [1]: 0.21
Synergy Score based on TNF-α inhibition (combination with Prednisolone): 0.36
Synergy Score based on TNF-α inhibition (combination with Triamcinolone): 0.37

CNCCCC1c2ccccc2C=Cc2ccccc21 [Protriptyline]
Synergy Score based on TNF-α inhibition (combination with Betamethasone): 0.53
Synergy Score based on TNF-α inhibition (combination with Budesonide): 1.2
Synergy Score based on TNF-α inhibition (combination with Clobetasol): 0.95
Synergy Score based on TNF-α inhibition (combination with Dexamethasone): 1.3
Synergy Score based on TNF-α inhibition (combination with Diflorasone): 0.67
Synergy Score based on TNF-α inhibition [1]: 0.68
Synergy Score based on TNF-α inhibition (combination with Prednisolone): 1.1
Synergy Score based on TNF-α inhibition (combination with Triamcinolone): 0.37

Reference: patent US20080280862A1, “Methods, compositions, and kits for the treatment of pain” (priority 2007, published 2008)
